{
  "source": "patent US20240226120A1",
  "about": "(priority 2020, published 2024)",
  "key": {"[1]": {"system": "HEK293 (human embryonic kidney) cells expressing the viral Orf10 protein", "format": "cell-based"}, "HT22 hippocampal neurons": {"system": "HT22 hippocampal neurons", "conditions": "5 μM CBD, oxygen-glucose deprivation; cited from earlier work"}, "Type I interferons": {"system": "Type I interferons", "assay": "Interferon types after CBD treatment, summary over transfections", "format": "cell-based, human", "conditions": "summary statement, transfection not specified"}, "[2]": {"system": "metabolically dysregulated cells", "assay": "Inhouse work on cell death, metabolically dysregulated cells (unpublished data)", "format": "cell-based"}, "[3]": {"system": "interferon and interferon-induced antiviral effector gene expression in cells expressing M-protein", "assay": "qPCR of interferons and effector gene expression, M-protein", "format": "cell-based, human"}, "normal cells": {"system": "normal cells", "assay": "Inhouse work on cell death, normal cells (unpublished data)", "format": "cell-based"}, "[4]": {"system": "HEK293 (human embryonic kidney) cells transfected with plasmid expressing viral protein ORF8", "assay": "Apoptosis assay (pSIVA early, propidium iodide late), ORF8", "format": "cell-based", "conditions": "ORF8, 24 hours", "excerpt": "(§1) 2. […] These transfections are done in duplicate."}, "[5]": {"system": "HEK293 (human embryonic kidney) cells expressing the viral M protein", "assay": "BrdU incorporation colorimetric ELISA, cells expressing viral M protein", "format": "cell-based", "conditions": "1 μM, 24 hours, not normalized to cell number (FIG. 5)"}, "[6]": {"system": "HEK293 (human embryonic kidney) cells transfected with plasmid expressing M protein", "assay": "Apoptosis assay (pSIVA early, propidium iodide late), M protein", "format": "cell-based", "excerpt": "as §1"}, "[7]": {"system": "HEK293 (human embryonic kidney) cells transfected with control plasmid pCMV-3Tag-3A", "assay": "Apoptosis assay (pSIVA early, propidium iodide late), control plasmid", "format": "cell-based", "conditions": "24 hours, normalized to crystal violet", "excerpt": "as §1"}, "[8]": {"system": "TNFα, IL-6, IL-4, IL-13, IL-10, and IL-5", "conditions": "asthma induced animals treated with Cannabidiol vs asthma induced animals; cited from earlier work"}, "[9]": {"system": "HEK293 (human embryonic kidney) cells expressing the viral Orf8 protein", "format": "cell-based"}, "CB2 receptor": {"target": "CB2 receptor (Homo sapiens, UniProt P34972)", "sequence (P34972 whole entry)": "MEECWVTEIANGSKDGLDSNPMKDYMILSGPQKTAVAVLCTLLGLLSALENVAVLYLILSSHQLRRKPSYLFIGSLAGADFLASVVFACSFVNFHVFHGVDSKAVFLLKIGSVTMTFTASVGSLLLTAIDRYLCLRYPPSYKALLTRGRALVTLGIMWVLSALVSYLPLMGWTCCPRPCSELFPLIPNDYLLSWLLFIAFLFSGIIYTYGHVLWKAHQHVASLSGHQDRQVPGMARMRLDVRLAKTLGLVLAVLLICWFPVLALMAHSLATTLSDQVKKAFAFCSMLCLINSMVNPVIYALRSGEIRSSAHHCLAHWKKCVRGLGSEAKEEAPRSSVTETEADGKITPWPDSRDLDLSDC", "conditions": "cited from earlier work"}},
  "note": "Where “and” joins values, the source holds several entries; their conditions need not be identical. Equal values may be shown once.",
  "data": [
    {"molecule": "CCCc1cc(O)c2c(c1)OC(C)(C)[C@@H]1CC=C(C)C[C@@H]21", "note": "[delta 8-tetrahydrocannabivarin]", "values": [
      {"measurement": "BrdU incorporation relative to untreated cells", "setting": "[1]", "value": "less reduction"}
    ]},
    {"molecule": "C=C(C)[C@@H]1CCC(C)=C[C@H]1c1c(O)cc(CCCCC)cc1O", "note": "[Cannabidiol, 2-[(1R,6R)-3-Methyl-6-(1-methylethenyl)-2-cyclohexen-1-yl]-5-pentyl-1,3-benzenediol]", "values": [
      {"measurement": "apoptosis and oxidative stress", "setting": "HT22 hippocampal neurons", "value": "significantly attenuated"},
      {"measurement": "change in Type I interferons as a result of CBD treatment", "setting": "Type I interferons", "value": "not much change"},
      {"measurement": "cell death", "setting": "[2]", "value": "decreases cell death"},
      {"measurement": "OAS1 gene expression", "setting": "[3]; M protein, 1 μM CBD vs vehicle-treated cells, 24 hours (FIG. 18)", "value": "significantly greater expression"},
      {"measurement": "INF-lambda 1 expression", "setting": "[3]; M-protein, 1 μM CBD, 24 hours (FIG. 16A)", "value": "induced"},
      {"measurement": "INF-lambda 2/3 expression", "setting": "[3]; M-protein, 1 μM CBD, 24 hours (FIG. 16B)", "value": "induced"},
      {"measurement": "IFIT1 augmentation compared with cells expressing control plasmid", "setting": "[3]; M-protein, 1 μM CBD, 24 hours (FIG. 19)", "value": "lower"},
      {"measurement": "Mx1 gene expression", "setting": "[3]; M-protein, 1 μM CBD, 24 hours, vs Cannabidiol-treated cells expressing only control plasmid (FIG. 17)", "value": "significantly greater extent"},
      {"measurement": "mean BrdU incorporation lower than in cells expressing Orf10 but untreated with cannabinoids", "setting": "[1]", "value": 30.44, "unit": "%"},
      {"measurement": "cell death", "setting": "normal cells", "value": "no effect"},
      {"measurement": "early apoptosis (pSIVA)", "setting": "[4]; vs vehicle-treated ORF8 cells and vs Cannabidiol-treated control vector cells (FIG. 8A)", "value": "significant increases"},
      {"measurement": "late apoptosis (propidium iodide)", "setting": "[4]; vs vehicle-treated ORF8 cells and vs Cannabidiol-treated control vector cells (FIG. 8B)", "value": "significant increases"},
      {"measurement": "mean BrdU incorporation lower than in cells expressing M protein but untreated with cannabinoids", "setting": "[5]", "value": 37.28, "unit": "%"},
      {"measurement": "early apoptosis (pSIVA)", "setting": "[6]; relative to M protein cells treated only with vehicle (FIG. 15A)", "value": "significantly elevated"},
      {"measurement": "late apoptosis (propidium iodide)", "setting": "[6]; relative to M protein cells treated only with vehicle (FIG. 15B)", "value": "significantly elevated"},
      {"measurement": "early apoptosis (pSIVA)", "setting": "[7]", "value": "do not show any significant increase"},
      {"measurement": "late apoptosis (propidium iodide)", "setting": "[7]", "value": "do not show any significant increase"},
      {"measurement": "early apoptosis (pSIVA)", "setting": "[7]; listed as CBD", "value": "did not alter"},
      {"measurement": "late apoptosis (propidium iodide)", "setting": "[7]; listed as CBD", "value": "did not alter"},
      {"measurement": "levels of all cytokines (TNFα, IL-6, IL-4, IL-13, IL-10, IL-5)", "setting": "[8]", "value": "reduced significantly"},
      {"measurement": "mean BrdU incorporation lower than in cells expressing Orf8 but untreated with cannabinoids", "setting": "[9]", "value": "37.28% and 43.52%"},
      {"measurement": "binding to CB2 receptor", "setting": "CB2 receptor", "value": "very weakly"}
    ]}
  ]
}
